In patent US9169482B2, “Method for synthesizing cDNA” (TAKARA BIO INC., priority 2010, dated 2015):

Target: T1, DNaseI (Bos taurus, UniProt P00639)
T1 construct: purchased TAKARA BIO INC
Test: Degradation of mouse genomic DNA with DNaseI in reaction solutions of Table 3, agarose gel electrophoresis (Example 2)
Assay type: biochemical
Conditions: 5 U DNaseI, 200 ng mouse genomic DNA
Procedure: In order to construct a reaction composition completely inhibiting endoDNase activity, six kinds of 20 μL-reaction solutions (Reaction Solutions 1 to 6) containing 5 U DNaseI (TAKARA BIO INC.), 200 ng mouse genomic DNA, and the components as listed in Table 3 were prepared. In addition, six kinds of 20 μL-reaction solutions having the same compositions except that DNaseI was not contained were prepared. These reaction solutions were incubated at 37° C. for 15 minutes, and thereafter incubated at 85° C. for 5 seconds. Next, each of the reaction solutions was subjected to agarose gel electrophoresis, thereby confirming degradation of mouse genomic DNA with DNaseI.
It could be confirmed from this matter that DNaseI activity was inhibited in Reaction Solutions 3 and 4. […] It is shown from this matter that adjustment of the Mg concentration can further inhibit DNaseI activity other than the addition of KCl and (NH4)2SO4 or an increase in the DTT concentration.

T1 sequence (P00639 23-282): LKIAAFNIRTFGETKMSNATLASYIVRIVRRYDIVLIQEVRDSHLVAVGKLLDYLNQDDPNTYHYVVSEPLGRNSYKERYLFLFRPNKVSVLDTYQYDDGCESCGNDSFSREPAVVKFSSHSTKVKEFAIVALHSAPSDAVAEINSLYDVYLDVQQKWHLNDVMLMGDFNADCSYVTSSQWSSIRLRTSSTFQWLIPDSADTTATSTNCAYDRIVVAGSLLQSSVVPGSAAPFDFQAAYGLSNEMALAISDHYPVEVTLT

N.N.O=S(=O)(O)O [(NH4)2SO4, ammonium sulfate]
Inhibition of DNaseI activity: inhibited DNaseI activity in a concentration-dependent manner
